Results as given in patent US4719220A, “15(R)-5-fluoroprostacyclins, pharmaceutical compositions and anti-thrombotic methods of use thereof” (G. D. Searle & Co., priority 1986, dated 1988).
Counter-ions that a name gives are not always drawn.

Tests used:
[1] = system: mean blood pressure / platelet aggregation; settings: sodium salts, cited from earlier work; for ratio of blood pressure lowering activity and platelet aggregation inhibiting activity: dose for 20% lowering of mean blood pressure / minimum concentration for 50% inhibition of aggregation, PGI2 = 1; for platelet aggregation inhibition in comparison with blood pressure lowering, compared to PGI2: EP Publication No. 0054795
[2] = system: ADP-induced platelet aggregation; assay: In vitro ADP aggregation (platelet-rich plasma); type: cell-based; settings: Table I; rat platelet-rich plasma, ADP 1-2 uM
Method: Rationale: The changes in optical density resulting from ADP-stimulation of platelet-rich plasma is used to identify compounds which inhibit or reverse platelet activation.
1. Platelet-rich plasma (PRP) is obtained from citrated whole rat blood.
2. Compound solutions are prepared at the initial screening dose of 1×1O^-4 M.
3. The prostacyclin (PGI2) standard is prepared in 0.lM NaOH-glycine (pH 10.0) over a range of 10^-9 -10^-8 M.
4. ADP in saline is added to PRP over a range of 1-2 uM to determine a concentration eliciting maximum aggregation within one minute.
5. PRP containing standard or test compound is preincubated for 1 minute and then stimulated with ADP. Vehicle controls are tested simultaneously.
6. The aggregation wave generated is monitored until the reversal phase is observed.
7. Platelet aggregation is quantified as the units of depth between the baseline and maximum depth.
8. Dose-response curves are generated for percent inhibition of ADP-induced platelet aggregation.
9. In vitro activity of the compounds screened is assessed by comparison of IC50 (M) with that of PGI2.

mean arterial pressure [3] = assay: Hexamethonium Rat hypotensive activity (spontaneously hypertensive rats); type: in vivo; settings: iv bolus
Method: Hexamethonium Rat (Duration)
Spontaneously hypertensive rats (300-400 g.) are anesthetized with 100 mg/kg barbital/25 mg/kg pentobarbital ip. The jugular vein and carotid artery are then cannulated with polyethylene-50 tubing (for drug administration and blood pressure measurement, respectively). A tracheotomy tube is inserted and animals breathe 100% O2 spontaneously. Body temperature is maintained at 37° C. with a thermister probe and heat lamp. Rats are then dosed with 1 mg/kg hexamethonium, iv bolus. After a 10-minute stabilization period, animals are dosed with compound. All compounds are dissolved in either glycine buffer or saline and given in a volume of 1 ml kg. Approximate ED50 doses are administered iv bolus and mean arterial pressure (MAP) is recorded every 30 seconds for 5 minutes, then every minute for a 15-20 minute period or until pressure returns to baseline. Changes in MAP (compared to pre-treatment values) are analyzed with a paired t-test.

[4] = system: ADP-Thrombocytopenia (platelet numbers); assay: In vivo ADP-thrombocytopenia; set-up: species or system rat; settings: rats; for In vivo (ADP-Thrombocytopenia) ED50: Table I, infusion right jugular vein five minutes, ADP 0.5 mg/kg; for Anti-Aggregatory in vivo (ADP-Thrombocytopenia) ED50: Table II
Method: In vivo ADP-thrombocytopenia
Vehicle/compound in saline is infused for five minutes in the right jugular vein of rats (400-500 g) anesthetized with pentobarbital. Adenosine diphosphate (0.5 mg/kg) in saline is immediately infused for one minute in the left jugular vein. Blood samples are drawn (1:10 into 3.8% citrate) and platelets counted on a Coulter counter and platelet numbers in treated animals are compared to controls. The ED50 (effectiVe dose in 50% of treated animals--μg/kg/minute) for compound activity is calculated from linear regression.

mean arterial pressure [5] = assay: Hypotensive Activity in Normotensive Rats; type: in vivo, normotensive Sprague-Dawley rats; settings: Table II; for ED (25 mm Hg): Rattus norvegicus, iv, bolus i.v., dose lowering pressure 25 mm Hg, read-out: Blood Pressure ED25; for Therapeutic Index (Blood Pressure ED25 / Anti-Aggregatory): ED25 blood pressure over ED50 ADP-thrombocytopenia
Method: Hypotensive Activity in Normotensive Rats.
Normotensive Sprague-Dawley rats (weighing 400 to 500 g) are anesthetized wrth 100 mg/kg barbital/25 mg/kg pentobarbital intraperitoneally. The jugular vein and carotid artery are then cannulated with polyethylene-50 tubing (for drug administration and blood pressure measurement, respectively). A tracheotomy tube is inserted and animals breath 100% O2 spontaneously.
Also, body temperature is maintained at 37° C. with a thermister probe and heat lamp. After a 10 to 15 minute stabilization period, bolus i.v. injections of compound are given and responses (decrease in mean arterial pressure in mm Hg) are recorded. A linear regression analysis is then performed on the data to yield the following information:
EDO --threshold dose or dose at which an effect is first observed.
ED50 --the dose which causes 50% of the maximal response slope of the regression line in mm Hg.
When blood pressure lowering effects are minimal, an ED50 cannot be determined and, instead, an ED25 (dose which lowers the maximal pressure 25 mm Hg) is calculated.

blood pressure = settings: U.S. Pat. No. 4,178,367; cited from earlier work

SMILES: CCCCCC(O)C=CC1C(O)CC2OC(=C(Cl)CCCC(=O)[O-])CC21.[Na+] (stereo not drawn) [5-chloro derivative, 5-chloro-PGI2 sodium salt]
- ratio of blood pressure lowering activity and platelet aggregation inhibiting activity [1]: 4
- platelet aggregation inhibition in comparison with blood pressure lowering, compared to PGI2 [1]: stronger activities with respect to the inhibition of platelet aggregation in comparison with their blood pressure lowering activities compared to PGI2

SMILES: CCCCCC(O)C=CC1C(O)CC2OC(=CCCCC(=O)[O-])C(F)C21.[Na+] (stereo not drawn) [7-fluoro derivative, 7-fluoro-PGI2 sodium salt]
- ratio of blood pressure lowering activity and platelet aggregation inhibiting activity [1]: 32
- platelet aggregation inhibition in comparison with blood pressure lowering, compared to PGI2 [1]: stronger activities with respect to the inhibition of platelet aggregation in comparison with their blood pressure lowering activities compared to PGI2

SMILES: O=C(O)CCC/C(F)=C1/C[C@@H]2[C@@H](/C=C/[C@@H](O)C3CCCC3)[C@H](O)C[C@@H]2O1 [(5F,15S)]
- IC50 [2]: 11 nM
- Blood Pressure Hexamethonium Rat, Blood Pressure/dose (decrease) (mean arterial pressure [3]; 10 μg/kg): -104 mm/Hg
- In vivo (ADP-Thrombocytopenia) ED50 [4]: 0.87 µg/kg/min

SMILES: O=C(O)CCC[C@@H](F)C1=C[C@@H]2[C@@H](/C=C/[C@H](O)C3CCCC3)[C@H](O)C[C@@H]2O1 [(5R,15R), 15-cyclopentyl-6,9α-Epoxy-5R-fluoro-11α,15R-dihydroxy-16,17,18,19,20-pentanorprosta-6,13E-dien-1-oic acid, sodium salt]
- IC50 [2]: 600 nM
- ED (25 mm Hg) (mean arterial pressure [5]): 0.501 mg/kg
- Therapeutic Index (Blood Pressure ED25 / Anti-Aggregatory) (mean arterial pressure [5]): 217.8
- In vivo (ADP-Thrombocytopenia) ED50 [4]: 2.3 µg/kg/min
- Anti-Aggregatory in vivo (ADP-Thrombocytopenia) ED50 [4]: 2.3 µg/kg/min

SMILES: O=C(O)CCC[C@@H](F)C1=C[C@@H]2[C@@H](/C=C/[C@@H](O)C3CCCC3)[C@H](O)C[C@@H]2O1 [(5R,15S)]
- IC50 [2]: 190 nM
- Blood Pressure Hexamethonium Rat, Blood Pressure/dose (decrease) (mean arterial pressure [3]; 10 μg/kg): -47 mm/Hg
- ED (25 mm Hg) (mean arterial pressure [5]): 0.0026 mg/kg
- Therapeutic Index (Blood Pressure ED25 / Anti-Aggregatory) (mean arterial pressure [5]): 0.87
- In vivo (ADP-Thrombocytopenia) ED50 [4]: 3.0 µg/kg/min
- Anti-Aggregatory in vivo (ADP-Thrombocytopenia) ED50 [4]: 3.0 µg/kg/min

SMILES: O=C(O)CCC[C@H](F)C1=C[C@@H]2[C@@H](/C=C/[C@H](O)C3CCCC3)[C@H](O)C[C@@H]2O1 [(5S,15R), 15-cyclopentyl-6,9α-Epoxy-5S-fluoro-11α, 15R-dihydroxy-16,17,18,19,20-pentanorprosta-6,13E-dien-1-oic acid, sodium salt]
- IC50 [2]: 8600 nM
- Blood Pressure Hexamethonium Rat, Blood Pressure/dose (decrease) (mean arterial pressure [3]; 100 μg/kg): Inactive
- In vivo (ADP-Thrombocytopenia) ED50 [4]: 3.3 µg/kg/min

SMILES: O=C(O)CCC[C@H](F)C1=C[C@@H]2[C@@H](/C=C/[C@@H](O)C3CCCC3)[C@H](O)C[C@@H]2O1 [(5S,15S)]
- IC50 [2]: 100 nM
- Blood Pressure Hexamethonium Rat, Blood Pressure/dose (decrease) (mean arterial pressure [3]; 10 μg/kg): -42 mm/Hg
- In vivo (ADP-Thrombocytopenia) ED50 [4]: 2.3 µg/kg/min

SMILES: CCCC1CCC([C@H](O)/C=C/[C@@H]2[C@H]3C/C(=C/CCCC(=O)OC)O[C@H]3C[C@H]2O)C1 (stereo partly drawn) [(5Z, 13E)-(9α,11α,15S)-6,9-epoxy-11,15-dihydroxy-15-(3 propyl)cyclopentyl-16, 17, 18, 19, 20-pentanorprosta-5,13-dienoic acid methyl ester]
- blood pressure lowering activity compared to a 15R derivative (blood pressure): greater blood pressure lowering activity

SMILES: O=C(O)CCC/C=C1/C[C@@H]2[C@@H](/C=C/[C@H](O)C3CCCC3)[C@H](O)C[C@@H]2O1 [(15R)]
- IC50 [2]: 630 nM
- Blood Pressure Hexamethonium Rat, Blood Pressure/dose (decrease) (mean arterial pressure [3]; 100 μg/kg): -76 mm/Hg

SMILES: O=C(O)CCC/C=C1/C[C@@H]2[C@@H](/C=C/[C@@H](O)C3CCCC3)[C@H](O)C[C@@H]2O1 [(15S)]
- IC50 [2]: 76 nM
- Blood Pressure Hexamethonium Rat, Blood Pressure/dose (decrease) (mean arterial pressure [3]; 0.2 μg/kg): -83 mm/Hg

SMILES: CCCCC[C@H](O)/C=C/[C@@H]1[C@H]2C/C(=C/CCCC(=O)O)O[C@H]2C[C@H]1O [PGI2, (5Z)-9-deoxy-6,9α-epoxy-Δ^5 -PGF1]
- ratio of blood pressure lowering activity and platelet aggregation inhibiting activity [1]: 1
